Where two headings read alike, the source gives them in different places.
Legend:
[1] = Turbidity assay of relative solubility in aqueous buffers; format: physicochemical; details: for turbidity threshold (L, M, H) 1.4: pH 1.4 as headed (method: SGF pH 1.5); for turbidity threshold (L, M, H) 4.5: pH 4.5 (SIF); for turbidity threshold (L, M, H) 6.8: pH 6.8 (SIF); for turbidity threshold (L, M, H) 7.4: pH 7.4 (HEPES)
Procedure: As an indication of relative solubility, the turbidity of compounds in aqueous solutions is assessed. To assess possible compound properties in different physiological compartments, such as stomach, intestine, and blood, a series of aqueous buffers with varying pH is used. Thus each compound is diluted into four different physiologically relevant buffers and solution turbidity is measured by spectrophotometry.
Compounds are dissolved at a concentration of 25 mM in dimethyl sulfoxide, then serially diluted 1:1 into a 96 well plate, diluting 10 times in pure dimethyl sulfoxide, with the final well of each row a dimethyl sulfoxide blank. In an assay plate, 99 μL of appropriate buffer is added to each well, and 1 μL of each sample dilution is added to the buffer, achieving a range of final total concentrations in aqueous solutions having different pH. The buffers used are Simulated Gastric Fluid (SGF-pH 1.5) 0.5M NaCl, pH 1.5; Simulated Intestinal fluid (SIF-pH 4.5 and pH 6.8) 0.05M NaH2PO4, pH 4.5 and 6.8; and Hepes Buffer (HEPES-pH 7.4) 10 mM HEPES, 150 mM NaCl, pH 7.4. Control compounds pyrene, estriol and propranolol HCl are also assessed. Plates are spun and then mixed for 1 minute, and the absorbance is read using a Tecan Safire II to read wavelengths in the visible range (490, 535, and 650 nm) at four locations per well, reflecting the degree of turbidity present. The average optical density for each wavelength in each well is graphed vs. compound concentration, and the concentration at which the curve crosses a threshold O.D. of 0.01 for each wavelength is reported as the endpoint turbidity assay result. The average of the three wavelengths is used to compare turbidity of compounds. Compounds are considered to have low solubility if the threshold concentration is <31.3 μM, moderate solubility if the threshold concentration is 31.3 μM to 250 μM, and high solubility if the threshold concentration is >250 μM.

[2] = target: CYP1A2 (Homo sapiens (Human), UniProt P05177); assay: CYP enzyme inhibition, fluorescent substrate; details: human, 15 min
Sequence of CYP1A2 (P05177 whole entry): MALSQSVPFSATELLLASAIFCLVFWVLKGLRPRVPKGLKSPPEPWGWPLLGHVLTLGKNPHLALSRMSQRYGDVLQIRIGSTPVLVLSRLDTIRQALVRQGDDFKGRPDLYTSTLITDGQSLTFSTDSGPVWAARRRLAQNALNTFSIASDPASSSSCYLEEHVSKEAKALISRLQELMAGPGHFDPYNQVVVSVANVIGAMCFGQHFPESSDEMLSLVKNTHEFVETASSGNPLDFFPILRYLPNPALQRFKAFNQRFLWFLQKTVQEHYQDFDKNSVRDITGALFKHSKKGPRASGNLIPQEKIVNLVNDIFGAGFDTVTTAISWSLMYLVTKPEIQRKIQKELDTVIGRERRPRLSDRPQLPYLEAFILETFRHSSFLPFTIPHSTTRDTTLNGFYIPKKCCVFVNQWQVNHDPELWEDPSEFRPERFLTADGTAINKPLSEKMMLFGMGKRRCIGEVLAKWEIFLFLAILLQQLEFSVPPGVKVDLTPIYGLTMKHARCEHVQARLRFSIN
Procedure: (§1) CYP (Cytochrome P450) enzymes are the major drug metabolizing enzymes present in the liver. The inhibition of CYP enzyme activity (IC50) for each of CYP1A2, CYP2C19, CYP2C9, CYP2D6, CYP3A4(BFC) and CYP3A4(BQ) is determined for compounds, where inhibition of metabolism of a known substrate leads to a decrease in the fluorescence of the metabolized product. The fluorescence of the product is monitored as a function of compound concentration.
(§2) Compounds are dissolved in DMSO to a concentration of 100 mM. These are diluted 1 μL into 82 μL of acetonitrile. An 11 μL aliquot of this solution is then added to 204 μL of cofactor mix (1.3% NADPH Regeneration system Solution A, 1.04% NADPH Regeneration system Solution B from BD Biosciences, 5% acetonitrile and 0.05% DMSO). These are then serially diluted 1:1 (160 μL to 160 μL co-factor mix) for a total of 10 points. A 10 μL aliquot of this final mixture is dispensed into 384 well assay plates and incubated for 10 minutes at 37° C. Enzyme and substrate mix (10 μL; […] CYP1A2/5 μM CEC; 1.0 μmol CYP2C9/75 μM MFC; […] CYP2C19/25 μM CEC; 1.5 μmol CYP2D6/1.5 μM AMMC; 1.0 μmol CYP3A4/50 μM BFC; or 1.0 μmol CYP3A4/40 μM BQ) is added to these assay plates. Assay plates are incubated at 37° C. (CYP1A2-15 min; CYP2C9-45 min; CYP2C19, 2D6 and 3A4-30 min) and read in a Tecan Safire 2 plate reader (CYP1A2, 2C19 and 3A4 409 ex/460 em; CYP2C9 and 2D6409 ex/530 em). The signal versus compound concentration is used to determine the IC50. The enzymes and substrates for this assay are obtained from BD Biosciences.

[3] = target: CYP2C19 (Homo sapiens (Human), UniProt P33261); assay: CYP enzyme inhibition, fluorescent substrate
Sequence of CYP2C19 (P33261 whole entry): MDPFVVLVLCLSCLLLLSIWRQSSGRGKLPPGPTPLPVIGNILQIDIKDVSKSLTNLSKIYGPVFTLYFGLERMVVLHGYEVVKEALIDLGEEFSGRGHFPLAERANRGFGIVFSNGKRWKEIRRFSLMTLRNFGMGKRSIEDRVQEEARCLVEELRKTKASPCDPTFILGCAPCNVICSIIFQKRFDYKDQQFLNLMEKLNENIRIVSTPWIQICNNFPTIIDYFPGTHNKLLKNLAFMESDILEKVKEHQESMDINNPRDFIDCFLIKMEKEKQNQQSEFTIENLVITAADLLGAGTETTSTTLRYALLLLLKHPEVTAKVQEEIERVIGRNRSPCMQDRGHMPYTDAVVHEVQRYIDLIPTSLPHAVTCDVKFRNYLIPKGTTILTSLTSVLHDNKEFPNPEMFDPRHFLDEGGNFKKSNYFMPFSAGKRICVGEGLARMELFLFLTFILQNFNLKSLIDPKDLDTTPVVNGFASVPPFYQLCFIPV
Procedure: as §1, §2

[4] = target: CYP2C9 (Homo sapiens (Human), UniProt P11712); assay: CYP enzyme inhibition, fluorescent substrate
Sequence of CYP2C9 (P11712 whole entry): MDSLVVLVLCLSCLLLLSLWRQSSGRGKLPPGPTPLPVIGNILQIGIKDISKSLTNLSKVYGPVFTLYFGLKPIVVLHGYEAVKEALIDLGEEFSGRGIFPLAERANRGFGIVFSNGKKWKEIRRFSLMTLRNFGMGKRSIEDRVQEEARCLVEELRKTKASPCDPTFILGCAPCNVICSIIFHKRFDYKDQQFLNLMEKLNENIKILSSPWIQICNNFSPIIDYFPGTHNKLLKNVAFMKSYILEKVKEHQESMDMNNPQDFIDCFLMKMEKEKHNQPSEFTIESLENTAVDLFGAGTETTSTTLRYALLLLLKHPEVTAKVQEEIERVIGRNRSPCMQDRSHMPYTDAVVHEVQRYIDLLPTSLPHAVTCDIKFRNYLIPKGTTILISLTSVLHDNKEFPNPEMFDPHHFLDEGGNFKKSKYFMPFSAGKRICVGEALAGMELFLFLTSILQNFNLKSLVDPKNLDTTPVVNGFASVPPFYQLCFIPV
Procedure: as §1, §2

[5] = target: CYP2D6 (Homo sapiens (Human), UniProt P10635); assay: CYP enzyme inhibition, fluorescent substrate; details: read-out: Cyp IC50 (μM) 2D6
Sequence of CYP2D6 (P10635 whole entry): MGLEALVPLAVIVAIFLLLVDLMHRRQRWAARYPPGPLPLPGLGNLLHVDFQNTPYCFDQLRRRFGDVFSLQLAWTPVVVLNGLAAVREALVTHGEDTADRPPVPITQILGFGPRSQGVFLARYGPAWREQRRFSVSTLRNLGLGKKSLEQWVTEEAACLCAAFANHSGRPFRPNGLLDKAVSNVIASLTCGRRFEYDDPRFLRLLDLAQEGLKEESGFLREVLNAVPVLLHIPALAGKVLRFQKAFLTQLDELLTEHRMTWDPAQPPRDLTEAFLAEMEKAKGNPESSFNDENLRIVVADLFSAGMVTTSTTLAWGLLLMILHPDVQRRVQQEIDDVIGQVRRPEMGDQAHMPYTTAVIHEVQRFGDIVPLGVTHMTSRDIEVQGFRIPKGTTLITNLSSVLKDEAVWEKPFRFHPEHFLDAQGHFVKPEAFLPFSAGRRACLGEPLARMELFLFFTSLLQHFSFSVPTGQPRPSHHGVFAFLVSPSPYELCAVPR
Procedure: as §1, §2

[6] = target: CYP3A4(BFC) (Homo sapiens (Human), UniProt P08684); assay: CYP enzyme inhibition, fluorescent substrate
Sequence of CYP3A4(BFC) (P08684 whole entry): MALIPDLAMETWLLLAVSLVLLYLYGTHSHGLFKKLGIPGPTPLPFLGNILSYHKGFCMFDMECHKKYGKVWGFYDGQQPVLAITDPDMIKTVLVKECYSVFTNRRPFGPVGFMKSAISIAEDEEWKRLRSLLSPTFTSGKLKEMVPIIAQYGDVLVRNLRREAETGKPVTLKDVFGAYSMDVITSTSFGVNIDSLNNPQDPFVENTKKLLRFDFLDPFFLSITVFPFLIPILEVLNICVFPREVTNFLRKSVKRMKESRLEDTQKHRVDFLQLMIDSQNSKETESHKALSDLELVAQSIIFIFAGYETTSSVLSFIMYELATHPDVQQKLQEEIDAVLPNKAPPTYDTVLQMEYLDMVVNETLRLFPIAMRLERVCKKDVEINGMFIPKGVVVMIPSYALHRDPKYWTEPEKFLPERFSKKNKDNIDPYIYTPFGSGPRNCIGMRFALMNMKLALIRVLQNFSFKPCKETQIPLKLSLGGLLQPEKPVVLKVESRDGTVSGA
Procedure: as §1, §2

[7] = target: CYP3A4(BQ) (Homo sapiens (Human), UniProt P08684); assay: CYP enzyme inhibition, fluorescent substrate; details: read-out: Cyp IC50 (μM) 3A4(BQ); BQ substrate
Sequence of CYP3A4(BQ) (P08684 whole entry): as above
Procedure: as §1, §2

[8] = target: Fms kinase (Homo sapiens (Human), UniProt P07333); assay: Fms kinase biochemical activity assay (AlphaScreen, biotin-(E4Y)10 phosphorylation)
Sequence of Fms kinase (P07333 20-972): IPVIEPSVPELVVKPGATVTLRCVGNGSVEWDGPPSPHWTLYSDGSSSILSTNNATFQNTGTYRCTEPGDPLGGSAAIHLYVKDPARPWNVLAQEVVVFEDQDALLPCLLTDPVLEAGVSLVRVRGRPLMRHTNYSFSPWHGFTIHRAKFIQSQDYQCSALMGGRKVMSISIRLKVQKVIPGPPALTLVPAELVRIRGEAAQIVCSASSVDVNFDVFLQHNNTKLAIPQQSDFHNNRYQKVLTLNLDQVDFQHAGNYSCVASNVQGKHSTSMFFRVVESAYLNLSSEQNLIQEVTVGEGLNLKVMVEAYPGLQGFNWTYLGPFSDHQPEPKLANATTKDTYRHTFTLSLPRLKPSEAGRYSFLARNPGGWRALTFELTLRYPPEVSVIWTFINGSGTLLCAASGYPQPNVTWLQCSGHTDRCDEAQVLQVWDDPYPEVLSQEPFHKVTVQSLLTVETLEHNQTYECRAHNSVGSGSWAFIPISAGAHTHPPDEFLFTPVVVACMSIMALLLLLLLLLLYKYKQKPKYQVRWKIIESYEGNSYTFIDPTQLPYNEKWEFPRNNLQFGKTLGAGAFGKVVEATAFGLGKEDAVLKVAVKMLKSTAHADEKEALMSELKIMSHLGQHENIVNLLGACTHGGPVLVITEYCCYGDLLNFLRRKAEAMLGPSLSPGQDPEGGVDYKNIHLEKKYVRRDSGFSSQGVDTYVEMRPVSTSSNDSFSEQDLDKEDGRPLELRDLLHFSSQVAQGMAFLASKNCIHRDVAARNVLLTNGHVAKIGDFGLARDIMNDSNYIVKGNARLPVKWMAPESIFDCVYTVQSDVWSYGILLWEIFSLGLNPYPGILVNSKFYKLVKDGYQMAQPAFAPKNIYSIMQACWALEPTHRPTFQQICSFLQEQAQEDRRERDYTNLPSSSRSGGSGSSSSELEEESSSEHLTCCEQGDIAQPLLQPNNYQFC
Procedure: In one assay the biochemical activity IC50 values are determined with respect to inhibition of Fms kinase activity, where inhibition of phosphorylation of a peptide substrate is measured as a function of compound concentration. Compounds to be tested, dissolved in DMSO (1 μL), are added to a white 384-well plate (Costar #3705). Working stocks of Fms kinase (Invitrogen #PV3249), biotin-(E4Y)10 substrate (Upstate Biotech, Cat#12-440), and ATP (Sigma, Cat#A-3377) are prepared in 25 mM Hepes pH 7.5, 0.5 mM MgCl2, 2 mM MnCl2, 2 mM DTT, 0.01% BSA, and 0.01% Tween-20. All components are added to the 384-well plate for a final concentration of 1 ng/well Fms, 30 nM biotin-(E4Y)10 (Upstate Biotechnology) and 100 μM ATP in a volume of 20 μL. Each sample is at 5% DMSO. The plate is then incubated for 20 minutes at 30° C. Just before use, working stocks of donor and acceptor beads from the AlphaScreen PY20 Detection Kit (PerkinElmer, Cat#676601M) are prepared in 25 mM Hepes pH 7.5, pH 7.4, 100 mM EDTA, 0.01% BSA. To stop the reaction, the plate is uncovered in the dark and 5 μL of Donor Beads solution (Streptavidin beads) is added to each well. The plate is incubated at room temperature for 20 minutes. Five microliters of Acceptor Beads solution (PY20 coated beads) are then added to each well. The final concentration of each bead is 10 μg/mL. The plates are incubated at room temperature for 60 minutes. Fluorescence signal is recorded on the Envision reader. […] The signal vs. compound concentration is used to determine the IC50.

[9] = target: c-Kit kinase (Homo sapiens (Human), UniProt P10721); assay: c-Kit kinase biochemical activity assay (AlphaScreen, biotin-(E4Y)10 phosphorylation)
Sequence of c-Kit kinase (P10721 26-976): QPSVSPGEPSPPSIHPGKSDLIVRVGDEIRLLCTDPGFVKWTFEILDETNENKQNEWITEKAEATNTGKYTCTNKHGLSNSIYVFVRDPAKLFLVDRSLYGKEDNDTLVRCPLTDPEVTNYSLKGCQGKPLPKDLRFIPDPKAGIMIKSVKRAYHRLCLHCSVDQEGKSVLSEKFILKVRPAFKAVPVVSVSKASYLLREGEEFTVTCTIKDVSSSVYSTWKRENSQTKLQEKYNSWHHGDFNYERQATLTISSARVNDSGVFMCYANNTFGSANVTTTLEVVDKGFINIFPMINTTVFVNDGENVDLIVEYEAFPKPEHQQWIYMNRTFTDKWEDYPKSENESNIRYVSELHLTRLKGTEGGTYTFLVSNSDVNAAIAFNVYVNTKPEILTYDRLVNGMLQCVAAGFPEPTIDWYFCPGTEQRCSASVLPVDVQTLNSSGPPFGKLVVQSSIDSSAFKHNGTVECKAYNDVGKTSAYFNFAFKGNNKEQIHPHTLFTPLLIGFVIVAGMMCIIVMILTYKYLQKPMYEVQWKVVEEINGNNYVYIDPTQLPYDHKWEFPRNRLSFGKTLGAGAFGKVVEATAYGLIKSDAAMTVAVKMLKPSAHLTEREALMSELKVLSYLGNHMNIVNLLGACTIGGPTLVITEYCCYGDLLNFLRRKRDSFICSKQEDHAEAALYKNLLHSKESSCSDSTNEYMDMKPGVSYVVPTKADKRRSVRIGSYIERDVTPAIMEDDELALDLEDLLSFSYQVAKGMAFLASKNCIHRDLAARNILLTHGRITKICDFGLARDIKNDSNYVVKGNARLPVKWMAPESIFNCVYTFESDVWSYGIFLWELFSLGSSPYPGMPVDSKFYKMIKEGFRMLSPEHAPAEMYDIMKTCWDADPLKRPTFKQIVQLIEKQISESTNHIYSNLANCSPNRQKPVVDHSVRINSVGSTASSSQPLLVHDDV
Procedure: In one assay the biochemical activity IC50 values are determined with respect to inhibition of c-Kit kinase activity, where inhibition of phosphorylation of a peptide substrate is measured as a function of compound concentration. Compounds to be tested are dissolved in DMSO to a concentration of 20 mM. These are diluted 30 μL into 120 μL of DMSO (4 mM) and 1 μL is added to an assay plate. These are then serially diluted […] (50 μL to 100 μL DMSO) for a total of 8 points. Plates are prepared such that each kinase reaction is 20 μL in 1× kinase buffer (25 mM HEPES, pH 7.5, 2 mM MgCl2, 2 mM MnCl2, 0.01% Tween-20, 1 mM DTT, 0.01% BSA), 5% DMSO and 100 μM ATP. Substrate is 30 nM biotin-(E4Y)10 (Millipore). C-kit kinase (obtained from Millipore (#14-559) or is prepared as described in U.S. Patent Application Publication Number 2009/0076046, the disclosure of which is hereby incorporated by reference as it relates to this assay) is at 0.75 ng per sample. After incubation of the kinase reaction for 1 hour at room temperature, 5 μL of donor beads (Streptavidin coated beads (Perkin Elmer Life Science) final concentration 10 μg/mL) in stop buffer (25 mM Hepes pH 7.5, 100 mM EDTA, 0.01% BSA) is added, the sample is mixed and incubated for 20 minutes at room temperature before adding 5 μL of acceptor beads (PY20 coated beads (Perkin Elmer Life Science) final concentration 10 μg/mL) in stop buffer. The samples are incubated for 60 minutes at room temperature and the signal per well is read on Envision reader. […] The signal vs. compound concentration is used to determine the IC50.

Biochemical activity selectivity (Kit IC50/Fms IC50) ([8]; Kit IC50/Fms IC50, biochemical)	IC50 ([8]; read-out: Biochemical activity (IC50 μM) Fms)	IC50 [9]	IC50 ([3]; read-out: Cyp IC50 (μM) 2C19)	IC50 ([4]; read-out: Cyp IC50 (μM) 2C9)	IC50 ([6]; read-out: Cyp IC50 (μM) 3A4(BFC), BFC substrate)	Compound	turbidity threshold (L, M, H) 1.4 [1]	turbidity threshold (L, M, H) 4.5 [1]	turbidity threshold (L, M, H) 6.8 [1]	turbidity threshold (L, M, H) 7.4 [1]	IC50 [2]	IC50 [3]	IC50 [4]	IC50 [5]	IC50 [6]	IC50 [7]
						COc1ncc(F)cc1CNc1ccc(Cc2c[nH]c3ncc(C)cc23)c(F)n1 [Compound P-2049, (5-Fluoro-2-methoxy-pyridin-3-ylmethyl)-[6-fluoro-5-(5-methyl-1H-pyrrolo[2,3-b]pyridin-3-ylmethyl)-pyridin-2-yl]-amine]	M (moderate solubility if the threshold concentration is 31.3 μM to 250 μM)	L (low solubility if the threshold concentration is <31.3 μM)	L (low solubility if the threshold concentration is <31.3 μM)	L (low solubility if the threshold concentration is <31.3 μM)	> 10 µM	5 to 10 µM	5 to 10 µM	> 10 µM	5 to 10 µM	> 10 µM
>20	< 0.1 µM	> 0.1 µM	< 5 µM	< 5 µM	< 5 µM	Cc1cnc2[nH]cc(Cc3ccc(NCc4ccnc(C)c4)nc3F)c2c1 [Compound P-2067, [6-Fluoro-5-(5-methyl-1H-pyrrolo[2,3-b]pyridin-3-ylmethyl)-pyridin-2-yl]-(2-methyl-pyridin-4-ylmethyl)-amine]	H (high solubility if the threshold concentration is >250 μM)	H (high solubility if the threshold concentration is >250 μM)	H (high solubility if the threshold concentration is >250 μM)	H (high solubility if the threshold concentration is >250 μM)	> 10 µM					> 10 µM

Reference: patent US9096593B2, “Compounds and methods for kinase modulation, and indications therefor” (Plexxikon Inc., priority 2009, dated 2015)
